Laboratory results published in ChEMBL document CHEMBL1201862, “PubChem BioAssay data set” (2004).
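Dose response: 5 concentrations. Exposure: 48 h. Format: 96-well plates. Endpoint: linear interpolation; highest concentration if not reached. Abbreviation: GI50, concentration required for 50% inhibition of growth.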 The source made the active and inactive calls. Rule as the data show it: active = GI50 up to about 1.1 µM and inactive = higher.

Columns and labels:
Test in all cases: NCI tumour cell line growth inhibition, 48 h
[1] = tested on: 786-0
[2] = tested on: A549
[3] = tested on: ACHN
[4] = tested on: BT-549
[5] = tested on: CCRF-CEM
[6] = tested on: COLO 205
[7] = tested on: DLD-1
[8] = tested on: DU-145
[9] = tested on: EKVX
[10] = tested on: HCC 2998
[11] = tested on: HCT-116
[12] = tested on: HCT-15
[13] = tested on: HL-60
[14] = tested on: HOP-18
[15] = tested on: HOP-62
[16] = tested on: HOP-92
[17] = tested on: HT-29
[18] = tested on: Hs-578T
[19] = tested on: IGROV-1
[20] = tested on: K562
[21] = tested on: KM12
[22] = tested on: LXFL 529
[23] = tested on: M14
[24] = tested on: M19-MEL
[25] = tested on: MCF7
[26] = tested on: MDA-MB-231
[27] = tested on: MDA-MB-435
[28] = tested on: MDA-N
[29] = tested on: MOLT-4
[30] = tested on: Malme-3M
[31] = tested on: NCI-H226
[32] = tested on: NCI-H23
[33] = tested on: NCI-H460
[34] = tested on: NCI-H522
[35] = tested on: NCI/ADR-RES
[36] = tested on: OVCAR-3
[37] = tested on: OVCAR-4
[38] = tested on: OVCAR-5
[39] = tested on: OVCAR-8
[40] = tested on: PC-3
[41] = tested on: RPMI-8226
[42] = tested on: SF-268
[43] = tested on: SF-295
[44] = tested on: SF-539
[45] = tested on: SK-MEL-28
[46] = tested on: SK-MEL-2
[47] = tested on: SK-MEL-5
[48] = tested on: SK-OV-3
[49] = tested on: SN12C
[50] = tested on: SNB-19
[51] = tested on: SNB-75
[52] = tested on: SR
[53] = tested on: SW-620
[54] = tested on: T47D
[55] = tested on: TK-10
[56] = tested on: U-251
[57] = tested on: UACC-257
[58] = tested on: UACC-62
[59] = tested on: UO-31
[60] = tested on: A498
[61] = tested on: CAKI-1
[62] = tested on: DMS-114
[63] = tested on: DMS-273
[64] = tested on: KM-20L2
[65] = tested on: LOX IMVI
[66] = tested on: SNB-78
[67] = tested on: XF498

SMILES: CC(=O)Nc1ccc(C(=O)NN2C(=O)C(Cl)C2c2cc(Br)ccc2O)cc1 (configuration not stated)
- GI50 [1]: 3.54 µM (inactive)
- GI50 [2]: 5.46 µM (inactive)
- GI50 [3]: 2.99 µM (inactive)
- GI50 [4]: 14.8 µM (inactive)
- GI50 [5]: 1.85 µM (inactive)
- GI50 [6]: 36.1 µM (inactive)
- GI50 [7]: 4.74 µM (inactive)
- GI50 [8]: 6.14 µM (inactive)
- GI50 [9]: 28.8 µM (inactive)
- GI50 [10]: 11.2 µM (inactive)
- GI50 [11]: 3.69 µM (inactive)
- GI50 [12]: 2.14 µM
- GI50 [13]: 2.71 µM (inactive)
- GI50 [14]: 4.41 µM (inactive)
- GI50 [15]: 2.2 µM (inactive)
- GI50 [16]: 15.2 µM (inactive)
- GI50 [17]: 9.46 µM (inactive)
- GI50 [18]: 66.1 µM (inactive)
- GI50 [19]: 17.6 µM (inactive)
- GI50 [20]: 6.41 µM (inactive)
- GI50 [21]: 3.44 µM (inactive)
- GI50 [22]: 14.4 µM (inactive)
- GI50 [23]: 4.54 µM (inactive)
- GI50 [24]: 4.12 µM (inactive)
- GI50 [25]: 3.84 µM (inactive)
- GI50 [26]: 3.6 µM (inactive)
- GI50 [27]: 7.69 µM (inactive)
- GI50 [28]: 9.16 µM (inactive)
- GI50 [29]: 3.37 µM (inactive)
- GI50 [30]: 5.55 µM (inactive)
- GI50 [31]: 7.36 µM (inactive)
- GI50 [32]: 5.75 µM (inactive)
- GI50 [33]: 3.09 µM (inactive)
- GI50 [34]: 6.55 µM (inactive)
- GI50 [35]: 3.65 µM (inactive)
- GI50 [36]: 4.11 µM (inactive)
- GI50 [37]: 3.76 µM (inactive)
- GI50 [38]: 19.2 µM (inactive)
- GI50 [39]: 6.52 µM (inactive)
- GI50 [40]: 3.88 µM (inactive)
- GI50 [41]: 12.1 µM (inactive)
- GI50 [42]: 1.91 µM (inactive)
- GI50 [43]: 3.66 µM (inactive)
- GI50 [44]: 4.19 µM (inactive)
- GI50 [45]: 4.38 µM (inactive)
- GI50 [46]: 4.86 µM (inactive)
- GI50 [47]: 5.04 µM (inactive)
- GI50 [48]: 4.42 µM (inactive)
- GI50 [49]: 8.71 µM (inactive)
- GI50 [50]: 7.62 µM (inactive)
- GI50 [51]: 44.4 µM (inactive)
- GI50 [52]: 3.45 µM (inactive)
- GI50 [53]: 6.21 µM (inactive)
- GI50 [54]: 4.16 µM (inactive)
- GI50 [55]: 36.1 µM (inactive)
- GI50 [56]: 2.59 µM (inactive)
- GI50 [57]: 3.93 µM (inactive)
- GI50 [58]: 3.85 µM (inactive)
- GI50 [59]: 3.72 µM (inactive)

SMILES: COC(=O)C1(F)C(=O)NC(=O)NC1OC (configuration not stated)
- GI50 [1]: 39.7 µM (inactive)
- GI50 [60]: > 100 µM (inactive)
- GI50 [2]: 5.92 µM (inactive)
- GI50 [3]: 29 µM (inactive)
- GI50 [61]: 83.9 µM (inactive)
- GI50 [5]: 3.08 µM (inactive)
- GI50 [6]: 68.5 µM (inactive)
- GI50 [7]: 5.92 µM (inactive)
- GI50 [62]: 73.3 µM (inactive)
- GI50 [63]: 21.2 µM (inactive)
- GI50 [11]: 7.8 µM (inactive)
- GI50 [12]: 22.9 µM
- GI50 [13]: 3.09 µM (inactive)
- GI50 [14]: 88.7 µM (inactive)
- GI50 [15]: 25.5 µM (inactive)
- GI50 [16]: 45.7 µM (inactive)
- GI50 [17]: 22.2 µM (inactive)
- GI50 [19]: > 100 µM (inactive)
- GI50 [20]: 96.2 µM (inactive)
- GI50 [64]: 50.9 µM (inactive)
- GI50 [21]: 21.6 µM (inactive)
- GI50 [65]: 11.9 µM (inactive)
- GI50 [24]: 18.7 µM (inactive)
- GI50 [29]: > 100 µM (inactive)
- GI50 [30]: 34.9 µM (inactive)
- GI50 [31]: > 100 µM (inactive)
- GI50 [32]: 30.3 µM (inactive)
- GI50 [33]: 3.52 µM (inactive)
- GI50 [34]: 75.5 µM (inactive)
- GI50 [36]: 94.2 µM (inactive)
- GI50 [37]: > 100 µM (inactive)
- GI50 [38]: > 100 µM (inactive)
- GI50 [39]: 34.1 µM (inactive)
- GI50 [41]: 90.6 µM (inactive)
- GI50 [42]: 45.4 µM (inactive)
- GI50 [43]: > 100 µM (inactive)
- GI50 [44]: 2.58 µM (inactive)
- GI50 [45]: 59.6 µM (inactive)
- GI50 [46]: > 100 µM (inactive)
- GI50 [47]: 9.84 µM (inactive)
- GI50 [48]: > 100 µM (inactive)
- GI50 [49]: 69 µM (inactive)
- GI50 [50]: > 100 µM (inactive)
- GI50 [51]: 39.2 µM (inactive)
- GI50 [66]: > 100 µM (inactive)
- GI50 [52]: > 100 µM (inactive)
- GI50 [53]: > 100 µM (inactive)
- GI50 [55]: > 100 µM (inactive)
- GI50 [56]: 24.5 µM (inactive)
- GI50 [57]: > 100 µM (inactive)
- GI50 [58]: 18.6 µM (inactive)
- GI50 [59]: 70.8 µM (inactive)
- GI50 [67]: 67.1 µM (inactive)

SMILES: O=C(c1ccc(Cl)cc1)C1OC12C(=O)Nc1c(Cl)cc(Cl)cc12 (configuration not stated)
- GI50 [1]: 49 µM (inactive)
- GI50 [60]: > 100 µM (inactive)
- GI50 [2]: 49.9 µM (inactive)
- GI50 [3]: 92.9 µM (inactive)
- GI50 [5]: 22.4 µM (inactive)
- GI50 [7]: 87.3 µM (inactive)
- GI50 [63]: 65.5 µM (inactive)
- GI50 [9]: 19.8 µM (inactive)
- GI50 [10]: > 100 µM (inactive)
- GI50 [12]: 42.1 µM
- GI50 [14]: 36.2 µM (inactive)
- GI50 [15]: > 100 µM (inactive)
- GI50 [17]: 41.2 µM (inactive)
- GI50 [20]: 22.3 µM (inactive)
- GI50 [64]: 67.5 µM (inactive)
- GI50 [21]: 48.6 µM (inactive)
- GI50 [65]: 39.4 µM (inactive)
- GI50 [30]: 71.9 µM (inactive)
- GI50 [31]: 28.3 µM (inactive)
- GI50 [32]: 30.1 µM (inactive)
- GI50 [33]: 50.8 µM (inactive)
- GI50 [36]: 21.2 µM (inactive)
- GI50 [38]: > 100 µM (inactive)
- GI50 [39]: 23 µM (inactive)
- GI50 [41]: 14.9 µM (inactive)
- GI50 [42]: 51.9 µM (inactive)
- GI50 [43]: 46.3 µM (inactive)
- GI50 [44]: 75 µM (inactive)
- GI50 [45]: 94 µM (inactive)
- GI50 [46]: 67.5 µM (inactive)
- GI50 [47]: 37.5 µM (inactive)
- GI50 [49]: 54 µM (inactive)
- GI50 [50]: 54.3 µM (inactive)
- GI50 [51]: 25.9 µM (inactive)
- GI50 [53]: 40 µM (inactive)
- GI50 [55]: 51.2 µM (inactive)
- GI50 [56]: 76.7 µM (inactive)
- GI50 [57]: 26.9 µM (inactive)
- GI50 [59]: 63.7 µM (inactive)
- GI50 [67]: 15.3 µM (inactive)
